What all share (format): in vivo
In assay [1] the test system is Amaranthus retroflexus L. (pigweed). The experiment in a line: Greenhouse pre-emergence treatment of Amaranthus retroflexus. The settings on record: application rate 1000 g/ha, scale 0 to 100. The text has this: The seeds of the test plants were sown separately for each species. For the pre-emergence treatment, the active ingredients, which had been suspended or emulsified in water, were applied directly after sowing by means of finely distributing nozzles. The containers were irrigated gently to promote germination and growth and subsequently covered with transparent plastic hoods until the plants had rooted. This cover caused uniform germination of the test plants, unless this has been impaired by the active ingredients. Depending on the species, the plants were kept at 10-25° C. or 20-35° C. The test period extended over 2 to 4 weeks. During this time, the plants were tended, and their response to the individual treatments was evaluated. Evaluation was carried out using a scale from 0 to 100. 100 means no emergence of the plants, or complete destruction of at least the aerial moieties, and 0 means no damage, or normal course of growth. A good herbicidal activity is given at values of at least 70 and a very good herbicidal activity is given at values of at least 85. The plants used in the greenhouse experiments belonged to the following species: [table]

Assay [2] deals with Echinochloa crus-galli (barnyard grass). The experiment in a line: Greenhouse post-emergence treatment of Echinochloa crus-galli. The note with it: application rate 1000 g/ha, scale 0 to 100. The text has this: (§1) The seeds of the test plants were sown separately for each species. For the post-emergence treatment, the test plants were first grown to a height of 3 to 15 cm, depending on the plant habit, and only then treated with the active ingredients which had been suspended or emulsified in water. For this purpose, the test plants were either sown directly and grown in the same containers, or they were first grown separately as seedlings and transplanted into the test containers a few days prior to treatment. Depending on the species, the plants were kept at 10-25° C. or 20-35° C. The test period extended over 2 to 4 weeks. During this time, the plants were tended, and their response to the individual treatments was evaluated. Evaluation was carried out using a scale from 0 to 100. 100 means no emergence of the plants, or complete destruction of at least the aerial moieties, and 0 means no damage, or normal course of growth. A good herbicidal activity is given at values of at least 70 and a very good herbicidal activity is given at values of at least 85. The plants used in the greenhouse experiments belonged to the following species: [table]

Assay [3] deals with Abutilon theophrasti (velvetleaf). The experiment in a line: Greenhouse post-emergence treatment of Abutilon theophrasti. The note with it: application rate 1000 g/ha, scale 0 (no damage) to 100 (complete destruction).
Description: as §1

The structures appear in SMILES notation.

The results in this text go back to patent US20150291570A1, “Substituted N-(tetrazol-5-yl)- and N-(triazol-5-yl)arylcarboxamide compounds and their use as herbicides” (BASF SE, priority 2012, published 2015).

Regarding `CON=C1CCS(=O)(=O)c2ccc(C(=O)Nc3ncnn3C)c(C)c21` [I.A-47], the results for the “damage [%]” value in assay [1], in assay [2] and in assay [3] were 70%, 95% and 100%, respectively.

Regarding `CON=C1CCS(=O)(=O)c2ccc(C(=O)Nc3nnnn3C)c(C)c21` [V.A-47], the “damage [%]” value in assay [1], in assay [2] and in assay [3] was 100% each time.
